Test results as given in publication PMC11303713, “Allosteric inhibition of CFTR gating by CFTRinh-172 binding in the pore” (Nature Communications, 2024).
Values joined by “and” are separate entries in the source; they are usually repeats but may differ in a detail not shown here. Equal entries are not always repeated. Where two headings read alike, the source gives them in different places.

Columns and labels:
Assay in all cases: Inside-out patch-clamp inhibition of CFTR current by Inh-172
Assay type in all cases: cell-based
[1] = target: T1, h-pTM8-h-CFTR (human CFTR, three TM8 amino acids replaced with pig's) (Homo sapiens, UniProt P13569, F931L/M929L/T925G); details: for inhibition at 1 µM: 1000 nM Inh-172; for inhibition at 5 µM: 5000 nM Inh-172; for inhibition at 10 µM: 10000 nM Inh-172
T1 construct: expressed in transfected cells; host or cells: CHO cells, pcDNA plasmid
Procedure: (§1) CHO cells were grown at 37 °C in Dulbecco’s modified Eagle’s medium supplemented with 10% (vol/vol) fetal bovine serum (Sigma-Aldrich, St. Louis, MO). pcDNA plasmids carrying the desired CFTR construct were transfected to CHO cells using PolyFect transfection reagent (Qiagen, Hilden, Germany) together with green fluorescence protein (GFP) cDNA (pEGFP-C3, Takara Bio, Shiga, Japan) that helps identify expression of CFTR. Cells were first incubated with the transfection reagents at 37 °C for 6-12 hours on sterile glass chips in 35-mm tissue culture dishes before transferred to 27 °C for incubation for 2–7 days. Primers for mutations were ordered from Integrated DNA Technologies (Coralville, IA) and were summarized in Supplementary Data. All CFTR mutants were prepared with QuikChange XL kit (Agilent, Santa Clara, CA) and sequenced at the DNA Core facility at University of Missouri-Columbia.
(§2) Patch-clamp pipettes were made from borosilicate capillary glass using a two-stage vertical puller (PP-81; Narishige, Amityville, NY). The pipette tips were fire polished with a homemade microforge to yield a pipette resistance of 2–5 MΩ when filled with a pipette solution containing (in mM): 140 NMDG-Cl (N-methyl-D-glucamine-chloride), 5 CaCl2, 2 MgCl2, and 10 HEPES, pH 7.4. For recordings, transfected cells on glass chips were transferred into a continuously perfused chamber on the stage of an inverted microscope (IX51; Olympus, Tokyo, Japan) with the perfusing solution containing (in mM): 150 NMDG-Cl, 2 MgCl2, 10 EGTA, 8 Tris, and 10 HEPES, pH 7.4. The membrane patch was excised to an inside-out configuration with a seal resistance >40 GΩ. CFTR currents were recorded with an amplifier (EPC9; HEKA, Holliston, MA), filtered through an eight-pole Bessel filter (LPF-8; Warner Instruments, Hamden, CT) at 100 Hz and digitized to a computer at a sampling rate of 500 Hz with Pulse software (version 8.53; HEKA). The membrane potential was held at −30 mV. Solution exchange was achieved by a fast solution change system (SF-77B; Warner Instruments). Inh-172 was obtained from the CFTR Chemical Compound Program supported by the Cystic Fibrosis Foundation. All experiments were performed at room temperature.
(§3) The steady state mean currents were measured in the Igor Pro software (version 8.0; WaveMetrics). The mean baseline currents were subtracted from the steady state mean currents before the data were used to determine the degrees of inhibition. The degrees of inhibition by CFTR inhibitor 172 were calculated based on the equation:1 %inhibition=1−IInh−172/I0X100% where I0 and Iinh−172 represent uninhibited and inhibited currents, respectively. The IC50 and Hill coefficients were obtained by fitting percent inhibition as a function of [Inh-172] with the Hill equation:2 %inhibition=base+(max−base)/1+xhalf/x^rate where max and base represent the […] percent inhibition by Inh-172, x represents the concentration of Inh-172, and the rate is the Hill coefficient. The estimated IC50 (xhalf) and Hill coefficients are listed in Table 1 as mean ± standard deviation. Each patch-clamp recording was made from a separate cell.

[2] = target: T2, p-hTMD1-p-CFTR (pig CFTR with human CFTR's TMD1) (Sus scrofa, UniProt Q6PQZ2, A115E/A228G/F12V/H39Q/I11V/I421T/I87F/K242R/K407E/L215I/L315F/L328I/M332I/N256S/N426D/P145L/S418N/S41P/S43V/S445N/T209A/V125I/V231I)
T2 construct: expressed in transfected cells; host or cells: CHO cells, pcDNA plasmid
Procedure: as §1, §2, §3

[3] = target: T3, T1142A-CFTR (Homo sapiens, UniProt P13569, T1142A)
T3 construct: expressed in transfected cells; host or cells: CHO cells, pcDNA plasmid
Procedure: as §1, §2, §3

[4] = target: T4, W1145L-CFTR (Homo sapiens, UniProt P13569, W1145L)
T4 construct: expressed in transfected cells; host or cells: CHO cells, pcDNA plasmid
Procedure: as §1, §2, §3

[5] = target: T5, W1145A-CFTR (Homo sapiens, UniProt P13569, W1145A)
T5 construct: expressed in transfected cells; host or cells: CHO cells, pcDNA plasmid
Procedure: as §1, §2, §3

[6] = 100 nM Inh-172, read-out: percent inhibition of current, Mean
[7] = 500 nM Inh-172, read-out: percent inhibition of current, Mean
[8] = read-out: percent inhibition of current, Mean
[9] = read-out: percent inhibition of current, individual cell
[10] = 500 nM Inh-172, read-out: percent inhibition of current, individual cell
[11] = 1000 nM Inh-172, read-out: percent inhibition of current, Mean
[12] = 1000 nM Inh-172, read-out: percent inhibition of current, individual cell
[13] = 5000 nM Inh-172, read-out: percent inhibition of current, Mean
[14] = 5000 nM Inh-172, read-out: percent inhibition of current, individual cell
[15] = 10000 nM Inh-172, read-out: percent inhibition of current, Mean
[16] = 10000 nM Inh-172, read-out: percent inhibition of current, individual cell

T3 sequence (P13569 whole entry T1142A): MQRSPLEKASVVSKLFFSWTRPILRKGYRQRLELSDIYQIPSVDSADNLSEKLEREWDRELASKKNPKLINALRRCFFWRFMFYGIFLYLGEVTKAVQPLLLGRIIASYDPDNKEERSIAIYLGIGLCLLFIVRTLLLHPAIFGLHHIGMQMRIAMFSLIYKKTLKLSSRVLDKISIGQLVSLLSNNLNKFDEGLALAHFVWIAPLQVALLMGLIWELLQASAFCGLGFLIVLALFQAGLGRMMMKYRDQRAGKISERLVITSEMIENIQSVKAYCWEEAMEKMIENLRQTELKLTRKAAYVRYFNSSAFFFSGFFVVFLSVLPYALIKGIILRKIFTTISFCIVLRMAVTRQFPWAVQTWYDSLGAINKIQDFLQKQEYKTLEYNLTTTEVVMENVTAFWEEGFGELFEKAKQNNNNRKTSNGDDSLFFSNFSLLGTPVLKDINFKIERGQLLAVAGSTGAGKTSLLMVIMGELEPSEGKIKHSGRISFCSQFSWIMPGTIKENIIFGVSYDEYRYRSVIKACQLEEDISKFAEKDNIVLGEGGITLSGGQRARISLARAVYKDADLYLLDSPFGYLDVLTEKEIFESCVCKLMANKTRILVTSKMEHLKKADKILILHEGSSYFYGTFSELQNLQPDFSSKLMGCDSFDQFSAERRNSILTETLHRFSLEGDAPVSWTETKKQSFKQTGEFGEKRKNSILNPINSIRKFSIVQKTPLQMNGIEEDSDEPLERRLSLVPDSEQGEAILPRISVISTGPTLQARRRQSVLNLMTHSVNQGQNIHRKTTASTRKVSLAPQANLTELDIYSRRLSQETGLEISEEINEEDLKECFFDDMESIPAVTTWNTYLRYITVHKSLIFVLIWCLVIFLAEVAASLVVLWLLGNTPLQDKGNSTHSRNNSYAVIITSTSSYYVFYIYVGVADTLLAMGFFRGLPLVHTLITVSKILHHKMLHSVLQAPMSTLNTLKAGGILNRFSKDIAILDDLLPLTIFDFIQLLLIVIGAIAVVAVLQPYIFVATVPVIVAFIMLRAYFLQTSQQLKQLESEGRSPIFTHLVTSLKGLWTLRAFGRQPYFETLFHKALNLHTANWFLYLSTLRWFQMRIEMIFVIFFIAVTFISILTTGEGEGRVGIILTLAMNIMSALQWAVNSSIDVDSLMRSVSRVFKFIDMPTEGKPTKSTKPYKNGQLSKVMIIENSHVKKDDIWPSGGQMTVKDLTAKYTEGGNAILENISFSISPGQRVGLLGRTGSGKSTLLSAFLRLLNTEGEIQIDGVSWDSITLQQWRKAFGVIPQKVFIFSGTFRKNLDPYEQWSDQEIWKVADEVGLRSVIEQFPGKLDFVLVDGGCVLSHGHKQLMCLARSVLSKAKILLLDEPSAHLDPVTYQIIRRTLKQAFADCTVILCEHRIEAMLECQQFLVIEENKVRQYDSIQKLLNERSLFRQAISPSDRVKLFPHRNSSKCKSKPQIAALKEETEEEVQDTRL
T2 sequence (Q6PQZ2 1-1482 with the stated changes): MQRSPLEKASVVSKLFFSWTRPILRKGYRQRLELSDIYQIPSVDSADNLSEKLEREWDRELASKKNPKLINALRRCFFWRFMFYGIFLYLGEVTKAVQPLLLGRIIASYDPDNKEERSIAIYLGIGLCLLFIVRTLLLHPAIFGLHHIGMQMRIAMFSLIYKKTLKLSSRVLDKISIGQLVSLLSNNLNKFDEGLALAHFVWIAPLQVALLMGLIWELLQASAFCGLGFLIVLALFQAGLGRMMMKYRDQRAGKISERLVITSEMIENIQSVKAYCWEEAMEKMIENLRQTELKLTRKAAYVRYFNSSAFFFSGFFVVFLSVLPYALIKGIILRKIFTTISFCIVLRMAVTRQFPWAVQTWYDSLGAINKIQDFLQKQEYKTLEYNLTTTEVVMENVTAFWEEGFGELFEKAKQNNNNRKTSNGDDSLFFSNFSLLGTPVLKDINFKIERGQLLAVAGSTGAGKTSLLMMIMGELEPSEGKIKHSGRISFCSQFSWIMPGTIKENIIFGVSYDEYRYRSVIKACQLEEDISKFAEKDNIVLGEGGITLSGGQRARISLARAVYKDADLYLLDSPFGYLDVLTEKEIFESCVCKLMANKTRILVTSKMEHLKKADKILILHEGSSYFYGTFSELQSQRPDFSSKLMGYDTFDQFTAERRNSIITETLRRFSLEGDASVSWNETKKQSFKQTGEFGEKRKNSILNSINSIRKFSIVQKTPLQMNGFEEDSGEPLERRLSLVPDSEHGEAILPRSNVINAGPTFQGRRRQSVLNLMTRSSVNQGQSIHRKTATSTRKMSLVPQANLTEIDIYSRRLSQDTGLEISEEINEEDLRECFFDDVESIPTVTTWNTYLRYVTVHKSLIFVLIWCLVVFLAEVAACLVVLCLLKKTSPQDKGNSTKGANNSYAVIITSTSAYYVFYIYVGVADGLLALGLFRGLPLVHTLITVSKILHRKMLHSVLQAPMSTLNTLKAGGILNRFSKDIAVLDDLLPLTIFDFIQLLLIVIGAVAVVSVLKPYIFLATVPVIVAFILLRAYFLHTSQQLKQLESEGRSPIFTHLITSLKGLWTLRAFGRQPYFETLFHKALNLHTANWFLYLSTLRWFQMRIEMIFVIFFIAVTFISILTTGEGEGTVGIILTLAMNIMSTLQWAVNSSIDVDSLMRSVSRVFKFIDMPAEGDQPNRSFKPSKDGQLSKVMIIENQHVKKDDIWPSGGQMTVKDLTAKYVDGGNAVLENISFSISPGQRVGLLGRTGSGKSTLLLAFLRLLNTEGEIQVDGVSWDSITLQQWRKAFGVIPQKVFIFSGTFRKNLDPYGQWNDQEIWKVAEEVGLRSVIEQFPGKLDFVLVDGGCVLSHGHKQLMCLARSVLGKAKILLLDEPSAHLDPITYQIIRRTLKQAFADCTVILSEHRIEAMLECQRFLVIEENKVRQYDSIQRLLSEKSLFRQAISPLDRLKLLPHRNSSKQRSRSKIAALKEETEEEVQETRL
T5 sequence (P13569 whole entry W1145A): as the sequence (P13569 whole entry T1142A) above, with A1142T, W1145A counted along it
T4 sequence (P13569 whole entry W1145L): as the sequence (P13569 whole entry T1142A) above, with A1142T, W1145L counted along it
T1 sequence (P13569 whole entry T925G/M929L/F931L): as the sequence (P13569 whole entry T1142A) above, with T925G, M929L, F931L, A1142T counted along it

O=C(O)c1ccc(/C=C2\SC(=S)N(c3cccc(C(F)(F)F)c3)C2=O)cc1 [Inh-172, CFTRinh-172]
inhibition at 0.1 µM [1, 6]: 18.4% | inhibition at 0.5 µM [1, 7]: 46.3% | inhibition at 1 µM [1, 8]: 58.5% | inhibition at 1 µM [1, 9]: 68% | inhibition at 5 µM [1, 8]: 83.3% | inhibition at 5 µM [1, 9]: 89% | inhibition at 10 µM [1, 8]: 91% | inhibition at 10 µM [1, 9]: 93% | Hill Coefficient ([1]; h-pTM8-h): 0.80 ± 0.02 | IC50 ([1]; h-pTM8-h): 640 ± 20 nM | percent inhibition of current, individual cell ([2]; 100 nM Inh-172): 4 and 3 and 1 | inhibition at 0.1 µM [2, 6]: 2.7% | percent inhibition of current, individual cell ([2]; 500 nM Inh-172): 17 and 15 | inhibition at 0.5 µM [2, 7]: 17.3% | inhibition at 0.5 µM [2, 10]: 20% | percent inhibition of current, individual cell ([2]; 1000 nM Inh-172): 30 and 24 | inhibition at 1 µM [2, 11]: 32% | inhibition at 1 µM [2, 12]: 42% | percent inhibition of current, individual cell ([2]; 5000 nM Inh-172): 67 and 68 | inhibition at 5 µM [2, 13]: 68.7% | inhibition at 5 µM [2, 14]: 71% | percent inhibition of current, individual cell ([2]; 10000 nM Inh-172): 83 and 81 | inhibition at 10 µM [2, 15]: 83.3% | inhibition at 10 µM [2, 16]: 86% | Hill Coefficient ([2]; p-hTMD1-p): 1.03 ± 0.03 | IC50 ([2]; p-hTMD1-p): 2210 ± 70 nM | percent inhibition of current, individual cell ([3]; 100 nM Inh-172): 28.0 and 24.0 and 52.0 and 14.0 and 42.0 | inhibition at 0.1 µM [3, 6]: 31.3% | percent inhibition of current, individual cell ([3]; 500 nM Inh-172): 61.0 and 67.0 and 78.0 and 44.0 and 66.0 | inhibition at 0.5 µM [3, 7]: 63.2% | percent inhibition of current, individual cell ([3]; 1000 nM Inh-172): 74.0 and 70.0 and 87.0 and 60.0 and 78.0 | inhibition at 1 µM [3, 11]: 73.8% | percent inhibition of current, individual cell ([3]; 5000 nM Inh-172): 93.0 and 96.0 and 84.0 | inhibition at 5 µM [3, 13]: 91.2% | inhibition at 5 µM [3, 14]: 90% | percent inhibition of current, individual cell ([3]; 10000 nM Inh-172): 98.0 and 92.0 | inhibition at 10 µM [3, 15]: 96.2% | inhibition at 10 µM [3, 16]: 97% | Hill Coefficient ([3]; T1142A): 0.81 ± 0.02 | IC50 ([3]; T1142A): 270 ± 10 nM | percent inhibition of current, individual cell ([4]; 100 nM Inh-172): 11 | inhibition at 0.1 µM [4, 6]: 16% | inhibition at 0.1 µM ([4]; 100 nM Inh-172, read-out: percent inhibition of current, individual cell): 21% | percent inhibition of current, individual cell ([4]; 500 nM Inh-172): 42 and 48 | inhibition at 0.5 µM [4, 7]: 44.3% | inhibition at 0.5 µM [4, 10]: 43% | percent inhibition of current, individual cell ([4]; 1000 nM Inh-172): 59 and 67 | inhibition at 1 µM [4, 11]: 62.3% | inhibition at 1 µM [4, 12]: 61% | percent inhibition of current, individual cell ([4]; 5000 nM Inh-172): 83 and 87 and 70 | inhibition at 5 µM [4, 13]: 81.3% | inhibition at 5 µM [4, 14]: 85% | percent inhibition of current, individual cell ([4]; 10000 nM Inh-172): 91 and 83 | inhibition at 10 µM [4, 15]: 89.5% | inhibition at 10 µM [4, 16]: 92% | Hill Coefficient ([4]; W1145L): 0.82 ± 0.07 | IC50 ([4]; W1145L): 640 ± 60 nM | percent inhibition of current, individual cell ([5]; 100 nM Inh-172): 2 and 8 and 0.5 | inhibition at 0.1 µM [5, 6]: 3.5% | percent inhibition of current, individual cell ([5]; 500 nM Inh-172): 32 and 33 | inhibition at 0.5 µM [5, 7]: 37.3% | inhibition at 0.5 µM [5, 10]: 42% | percent inhibition of current, individual cell ([5]; 1000 nM Inh-172): 60 and 69 and 44 and 52 and 49 | inhibition at 1 µM [5, 11]: 54.8% | percent inhibition of current, individual cell ([5]; 5000 nM Inh-172): 89 and 75 and 91 and 80 | inhibition at 5 µM [5, 13]: 85% | inhibition at 5 µM [5, 14]: 90% | percent inhibition of current, individual cell ([5]; 10000 nM Inh-172): 86 and 88 | inhibition at 10 µM [5, 15]: 89.8% | inhibition at 10 µM [5, 16]: 95% | Hill Coefficient ([5]; W1145A): 1.08 ± 0.12 | IC50 ([5]; W1145A): 880 ± 90 nM
